Results from ChEMBL document CHEMBL5518218, “Discovery of Novel PD-L1 Small-Molecular Inhibitors with Potent In Vivo Anti-tumor Immune Activity” (J Med Chem, 2024).
Activity calls are given as the source filed them. The calls are words filed in the database; no cut-off is given here.

Assays:
[1] = Prodrug conversion in C57BL/6 mouse assessed as half life of (2-(benzo[c][1,2,5]oxadiazol-5-ylmethoxy)-5-chloro-4-((2-fluoro-3'-(3-(4-hydroxypiperidin-1-yl)propoxy)-[1,1'-biphenyl]-3-yl)methoxy)benzyl)-D-serine at 10 mg/kg, po measured upto 24 hrs by LC-MS/MS analysis; format: ADME, organism-based; conditions: in vivo
[2] = Prodrug conversion in C57BL/6 mouse assessed as half life of (2-(benzo[c][1,2,5]oxadiazol-5-ylmethoxy)-5-chloro-4-((2-fluoro-3'-(3-(4-hydroxypiperidin-1-yl)propoxy)-[1,1'-biphenyl]-3-yl)methoxy)benzyl)-D-serine at 2 mg/kg, iv measured upto 24 hrs by LC-MS/MS analysis; format: ADME, organism-based; conditions: in vivo
[3] = Prodrug conversion in Sprague-Dawley rat assessed as half life of (2-(benzo[c][1,2,5]oxadiazol-5-ylmethoxy)-5-chloro-4-((2-fluoro-3'-(3-(4-hydroxypiperidin-1-yl)propoxy)-[1,1'-biphenyl]-3-yl)methoxy)benzyl)-D-serine at 9 mg/kg, iv measured upto 24 hrs by LC-MS/MS analysis; format: ADME, organism-based; conditions: in vivo
[4] = Water solubility of the compound; format: physicochemical
[5] = Prodrug conversion in C57BL/6 mouse assessed as Tmax of (2-(benzo[c][1,2,5]oxadiazol-5-ylmethoxy)-5-chloro-4-((2-fluoro-3'-(3-(4-hydroxypiperidin-1-yl)propoxy)-[1,1'-biphenyl]-3-yl)methoxy)benzyl)-D-serine at 2 mg/kg, iv measured upto 24 hrs by LC-MS/MS analysis; format: ADME, organism-based; conditions: in vivo
[6] = Prodrug conversion in Sprague-Dawley rat assessed as AUC (0 to t) of (2-(benzo[c][1,2,5]oxadiazol-5-ylmethoxy)-5-chloro-4-((2-fluoro-3'-(3-(4-hydroxypiperidin-1-yl)propoxy)-[1,1'-biphenyl]-3-yl)methoxy)benzyl)-D-serine at 45 mg/kg, po measured upto 24 hrs by LC-MS/MS analysis; format: ADME, organism-based; conditions: in vivo
[7] = Prodrug conversion in Sprague-Dawley rat assessed as Cmax of (2-(benzo[c][1,2,5]oxadiazol-5-ylmethoxy)-5-chloro-4-((2-fluoro-3'-(3-(4-hydroxypiperidin-1-yl)propoxy)-[1,1'-biphenyl]-3-yl)methoxy)benzyl)-D-serine at 9 mg/kg, iv measured upto 24 hrs by LC-MS/MS analysis; format: ADME, organism-based; conditions: in vivo
[8] = system: MC-38; assay: Cytotoxicity against mouse MC38 cells assessed as effect on cell viability at 0.07 to 150 uM incubated for 48 hrs by CCK-8 assay; format: functional, cell-based; conditions: dose 0.07-150 µM
[9] = system: CT26; assay: Antitumor activity against mouse CT26 cells implanted in BALB/c mouse assessed as reduction in Treg lymphocyte at 25 mg/kg, ip measured for 20 days; format: functional, organism-based; conditions: time 20.0 day
[10] = Prodrug conversion in C57BL/6 mouse assessed as Cmax of (2-(benzo[c][1,2,5]oxadiazol-5-ylmethoxy)-5-chloro-4-((2-fluoro-3'-(3-(4-hydroxypiperidin-1-yl)propoxy)-[1,1'-biphenyl]-3-yl)methoxy)benzyl)-D-serine at 2 mg/kg, iv measured upto 24 hrs by LC-MS/MS analysis; format: ADME, organism-based; conditions: in vivo
[11] = Prodrug conversion in Sprague-Dawley rat assessed as AUC (0 to t) of (2-(benzo[c][1,2,5]oxadiazol-5-ylmethoxy)-5-chloro-4-((2-fluoro-3'-(3-(4-hydroxypiperidin-1-yl)propoxy)-[1,1'-biphenyl]-3-yl)methoxy)benzyl)-D-serine at 9 mg/kg, iv measured upto 24 hrs by LC-MS/MS analysis; format: ADME, organism-based; conditions: in vivo
[12] = system: MC-38; assay: Antitumor activity against mouse MC38 cells implanted in C57BL/6J mouse assessed as tumor growth inhibition at 25 mg/kg, po measured for 20 days; format: functional; conditions: MC-38, 480 h, time 20 day, read-out: TGI
[13] = Acute toxicity in mouse assessed as mortality at 1000 mg/kg, po administered as single dose for 14 days; format: organism-based; conditions: in vivo, 336 h, time 14 day
[14] = Prodrug conversion in C57BL/6 mouse assessed as AUC (0 to t) of (2-(benzo[c][1,2,5]oxadiazol-5-ylmethoxy)-5-chloro-4-((2-fluoro-3'-(3-(4-hydroxypiperidin-1-yl)propoxy)-[1,1'-biphenyl]-3-yl)methoxy)benzyl)-D-serine at 2 mg/kg, iv measured upto 24 hrs by LC-MS/MS analysis; format: ADME, organism-based; conditions: in vivo
[15] = Prodrug conversion in Sprague-Dawley rat assessed as clearance of (2-(benzo[c][1,2,5]oxadiazol-5-ylmethoxy)-5-chloro-4-((2-fluoro-3'-(3-(4-hydroxypiperidin-1-yl)propoxy)-[1,1'-biphenyl]-3-yl)methoxy)benzyl)-D-serine at 9 mg/kg, iv measured upto 24 hrs by LC-MS/MS analysis; format: ADME, organism-based; conditions: in vivo
[16] = system: CT26; assay: Antitumor activity against mouse CT26 cells implanted in BALB/c mouse assessed as increase in INF-gamma level at 25 mg/kg, ip measured for 20 days; format: functional, organism-based; conditions: time 20.0 day
[17] = Prodrug conversion in Sprague-Dawley rat assessed as Tmax of (2-(benzo[c][1,2,5]oxadiazol-5-ylmethoxy)-5-chloro-4-((2-fluoro-3'-(3-(4-hydroxypiperidin-1-yl)propoxy)-[1,1'-biphenyl]-3-yl)methoxy)benzyl)-D-serine at 9 mg/kg, iv measured upto 24 hrs by LC-MS/MS analysis; format: ADME, organism-based; conditions: in vivo
[18] = Acute toxicity in mouse assessed as signs of distress at 1000 mg/kg, po administered as single dose for 14 days; format: organism-based; conditions: in vivo, 336 h, time 14 day
[19] = system: CT26; assay: Antitumor activity against mouse CT26 cells implanted in BALB/c mouse assessed as tumor growth inhibition at 25 mg/kg, ip measured for 18 days; format: functional; conditions: CT26, 432 h, time 18 day, read-out: TGI
[20] = Prodrug conversion in C57BL/6 mouse assessed as oral bioavailability of (2-(benzo[c][1,2,5]oxadiazol-5-ylmethoxy)-5-chloro-4-((2-fluoro-3'-(3-(4-hydroxypiperidin-1-yl)propoxy)-[1,1'-biphenyl]-3-yl)methoxy)benzyl)-D-serine at 10 mg/kg measured upto 24 hrs by LC-MS/MS analysis; format: ADME, organism-based; conditions: in vivo
[21] = biological target: Programmed cell death protein 1/Programmed cell death 1 ligand 1 (Homo sapiens, UniProt Q9NZQ7); assay: Inhibition of PD-1/PD-L1 interaction (unknown origin) incubated for 15 min by HTRF assay; format: protein-complex assay
[22] = Lipophilicity, log D of the compound at pH 7.4; format: physicochemical; conditions: buffer
[23] = Prodrug conversion in Sprague-Dawley rat assessed as Cmax of (2-(benzo[c][1,2,5]oxadiazol-5-ylmethoxy)-5-chloro-4-((2-fluoro-3'-(3-(4-hydroxypiperidin-1-yl)propoxy)-[1,1'-biphenyl]-3-yl)methoxy)benzyl)-D-serine at 45 mg/kg, po measured upto 24 hrs by LC-MS/MS analysis; format: ADME, organism-based; conditions: in vivo
[24] = system: CT26; assay: Cytotoxicity against mouse CT26 cells assessed as effect on cell viability at 0.07 to 150 uM incubated for 48 hrs by CCK-8 assay; format: functional, cell-based; conditions: dose 0.07-150 µM
[25] = Prodrug conversion in Sprague-Dawley rat assessed as oral bioavailability of (2-(benzo[c][1,2,5]oxadiazol-5-ylmethoxy)-5-chloro-4-((2-fluoro-3'-(3-(4-hydroxypiperidin-1-yl)propoxy)-[1,1'-biphenyl]-3-yl)methoxy)benzyl)-D-serine at 45 mg/kg measured upto 24 hrs by LC-MS/MS analysis; format: ADME, organism-based; conditions: in vivo

Chain of Programmed cell death protein 1/Programmed cell death 1 ligand 1 (Q15116 whole entry): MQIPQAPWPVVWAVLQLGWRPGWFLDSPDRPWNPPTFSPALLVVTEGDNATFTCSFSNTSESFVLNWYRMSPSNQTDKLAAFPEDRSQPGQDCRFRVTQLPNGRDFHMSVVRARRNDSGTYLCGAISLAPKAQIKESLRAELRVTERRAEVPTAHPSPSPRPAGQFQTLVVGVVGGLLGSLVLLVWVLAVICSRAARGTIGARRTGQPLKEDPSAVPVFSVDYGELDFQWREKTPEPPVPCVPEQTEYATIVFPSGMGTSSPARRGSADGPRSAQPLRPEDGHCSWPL
Chain of Programmed cell death protein 1/Programmed cell death 1 ligand 1 (Q9NZQ7 whole entry): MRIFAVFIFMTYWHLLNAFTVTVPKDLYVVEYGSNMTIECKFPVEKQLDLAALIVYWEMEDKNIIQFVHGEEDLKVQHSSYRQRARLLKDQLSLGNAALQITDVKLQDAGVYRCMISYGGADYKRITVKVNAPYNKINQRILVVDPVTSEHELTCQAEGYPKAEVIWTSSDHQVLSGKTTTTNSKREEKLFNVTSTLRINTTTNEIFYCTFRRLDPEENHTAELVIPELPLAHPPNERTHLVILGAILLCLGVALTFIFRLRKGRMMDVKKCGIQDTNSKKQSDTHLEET

CCOC(=O)[C@@H](CO)NCc1cc(Cl)c(OCc2cccc(-c3cccc(OCCCN4CCC(O)CC4)c3)c2F)cc1OCc1ccc2nonc2c1.Cl.Cl
t1/2 [1]: 1.6 h | t1/2 [2]: 1.7 h | t1/2 [3]: 7.9 h | solubility [4]: 9.52 µM | Tmax [5]: 4.8 min | AUCt [6]: 405.6 ng·h/mL | Cmax [7]: 3760.7 ng/mL | Activity [8]: inactive | Activity [9]: Active | Cmax [10]: 872.3 ng/mL | AUCt [11]: 2373.5 ng·h/mL | inhibition in vivo at 25 mg/kg [12]: 73.6% | Activity [13]: Non-Toxic | AUCt [14]: 531.6 ng·h/mL | CL [15]: 23.77 mL/min/kg | Activity [16]: Active | Tmax [17]: 4.8 min | Activity [18]: Non-Toxic | inhibition in vivo at 25 mg/kg [19]: 54.8% | F [20]: 11.5% | IC50 [21]: 0.786 µM | logD [22]: 1.59 | Cmax [23]: 49.8 ng/mL | Activity [24]: inactive | F [25]: 3.4%
